Marks after values point to notes of the source that are not given here.
Key:
[1] = tested on: ulcers induced by reserpine; assay: Reserpine induced ulcers; type: in vivo, female OFA rats; details: 40 mg/kg p.o.; reserpine 5 mg/kg s.c.; 18 h
Protocol: Female OFA rats of 130-160 g weight, starved for 24 hours, were treated at the same time perorally with 40 mg/kg doses of the substances to be tested and with 5 mg/kg s.c. doses of reserpine. After 18 hours the animals were over-anesthesized and the removed stomachs were investigated under stereomicroscope using a 8-fold enlargement. The number of ulcers was counted and their size was evaluated using 0-0.5-1-2-4-8-16-32 scores. The number of animals was 5 for each dose.

gastric blood-supply = assay: Gastric blood-supply, Rb^86 isotope method (Sapirstain); type: in vivo, Wistar female rats; details: 100 mg/kg p.o., n = 11, ± SE
Protocol: To investigate influence of gastric blood-supply the tests were carried out according to the method of Sapirstain using Rb^86 isotopes (Circ.Res.4, 689, 1956; Am. J. Physiol. 193. 161,1958). The test substances were administered perorally 2 hours before the experiment started and the degree of blood flow was determined in ml/min/g values. In the experiments the stomachs of Wistar female rats were divided into three segments i.e. pre-stomach, corpus and anthrum.

[2] = tested on: lesions caused by the NSAID naproxen; assay: Naproxen-induced gastric erosions, test substance 1 hour after naproxen; type: in vivo, WISTAR rats; details: n = 7
Protocol: (§1) Administration of the test substances followed 1 hour after injection. After 4 hours the animals were over-anesthesized with ether and the changes (erosions) were evaluated as in Example I.1. The size of the lesions was characterized by way of the ulcer index.

[3] = tested on: stress ulcer caused by immersion; assay: Stress ulcer caused by immersion; type: in vivo, Wistar rats
Protocol: 30 minutes after peroral treatment with the test substance, […]. After seven hours the glandular lesions appearing in the stomach were evaluated according to the score described in Example I.1.

[4] = tested on: basic gastric acid secretion; assay: Basic gastric acid secretion in Shay rats (pylorus ligation); type: in vivo; details: for acidity μEqu/ml / volume: 4 h
Protocol: The pilorus of Shay rats of 150-170 g weight was tied in ether narcosis /Gastroenterology 5,43,1945/. The test substances were added on the course of operation intra-duodenally. Immediately after operation each rat obtained 0.50 ml s.c. of a physiological salt solution for hydration. After 4 hours the rats were over-anesthesized, the stomach liquid was collected, centrifugated and the volume determined. Acidity of the secretion was determined with 0.1N aqueous sodium hydroxide in the presence of a Tobfler reagent.

Acute toxicity in mice = details: mouse, in vivo, po, per os, 14 days
Protocol: (§2) To determine acute toxicity the test substances were administered in increasing doses to CFLP male mice (18-20 g) and to male Wistar rats (150-160 g). The LD50 values were calculated after 14 days of observation according to Litchfield and Wilcoxon.

[5] = tested on: lesions caused by the NSAID piroxicam; assay: Piroxicam-induced gastric erosions, test substance 1 hour after piroxicam; type: in vivo, WISTAR rats; details: n = 7
Protocol: as §1

[6] = tested on: alcohol induced increase of gastric glandular capillary permeability; assay: Alcohol induced increase of gastric glandular capillary permeability; type: in vivo, rats; details: for Evans-blue: p < 0.05
Protocol: After 13 minutes 1 ml of 100% ethanol was added perorally and after further 2 minutes the stomachs were removed and their weights measured. […]

Acute toxicity in rats = details: rat, in vivo, po, per os, 14 days
Protocol: as §2

[7] = tested on: lesions induced with hydrochloric acid and ethanol; assay: Gastric haemorrhages induced by hydrochloric acid in ethanol (cytoprotection); type: in vivo, female rats; details: for average length of haemmorrhages, change in %: treated vs control
Protocol: The volume of treatment was 0.5 ml/100 g. […] The average degree of haemorrhages of the treated groups was compared to the control groups treated with the vehicle only. Number of animals was 6-18 in each group.

[8] = tested on: lesions caused by intomethacin; assay: Indomethacin-induced gastric lesions; type: in vivo, female OFA-rats; details: Rattus norvegicus, po, 60 min before 20 mg/kg indomethacin; 6 h; from ulcer index; confidence limits 95%; read-out: ED50 mg/kg (p.o.)
Protocol: The compounds were administered in a volume of 0.5 ml/100 g in a suspension prepared in water with 2-4% Tween-80. After 6 hours the animals were over-anesthesized and their stomachs were opened along the greater curvature. The preparations were investigated by stereomicroscopy using an 8-fold enlargement. The number, size and incidence of erosions and ulcers was noted and compared with the control group treated with the carrier only.
The size of the ulcers was determined on the basis of the following score:
1: ulcer or erosion of the size of 1-2 mm;
2: ulcer or erosion of the size of 2-3 mm;
3: ulcer or erosion of the size of 3-4 mm;
4: ulcer longer than 4 mm;
5: ulcer longer and broader than 4 mm.
The ED50 values were calculated on the basis of ulcer-indexes:
ulcer index=/severeity of lesion x number of lesions/number of animals /n/

[9] = tested on: histamine stimulated hydrochlorid acid secretion; assay: Histamine stimulated gastric acid secretion in Shay rats; type: in vivo; details: for acid secretion μEqu/4^h: p < 0.01
Protocol: The test substances were added on the course of operation intra-duodenally. Immediately after operation each rat obtained 0.50 ml s.c. of a physiological salt solution for hydration. After 4 hours the rats were over-anesthesized, the stomach liquid was collected, centrifugated and the volume determined. […] Measurement of stimulated secretion of gastric acid was also carried out according to the above method.

[10] = naproxen 75 mg/kg po. + 20 mg/kg po.
[11] = 25 mg/kg p.o., n = 10, p < 0.01
[12] = histamine 10 mg/kg s.c. + 5 mg/kg i.d., p < 0.05

c1ccc2c(-n3cncn3)ccnc2c1 [Substance 1, 4-(1H-1,2,4-triazole-1-yl)-quinoline]
number of ulcers, %change compared with control [1]: +4%
severity of ulcers, %change compared with control [1]: +9%
ulcers per treated [1]: 5/5
blood flow, pre-stomach (gastric blood-supply; control 0.23 ± 0.03): 0.19 ± 0.01 mL/min/g
blood flow, corpus (gastric blood-supply; control 0.51 ± 0.03, p < 0.02): 0.70 ± 0.09 mL/min/g
blood flow, anthrum (gastric blood-supply; control 0.71 ± 0.07): 1.01 ± 0.07 mL/min/g
inhibition % [2, 10]: 39%
ulcus index ± SEM [2, 10]: 15.6 ± 6.4
inhibition % ([2]; naproxen, 30 mg/kg po.): 95%
ulcus index ± SEM ([2]; naproxen, 30 mg/kg po., p < 0.01): 1.2 ± 0.5
erosion inhibition % ([3]; 10 mg/kg p.o., n = 7): 21%
erosion ulcus-index mm ([3]; 10 mg/kg p.o., n = 7): 33.6 ± 10.2 mm
hyperemia inhibition % ([3]; 10 mg/kg p.o., n = 7): 29%
hyperemia ulcer-index mm ([3]; 10 mg/kg p.o., n = 7): 64.3 ± 8.6 mm
erosion ulcus-index mm ([3]; 25 mg/kg p.o., n = 10): 12.1 ± 3.6 mm
hyperemia ulcer-index mm ([3]; 25 mg/kg p.o., n = 10): 35.8 ± 9.4 mm
erosion inhibition % [3, 11]: 71%
hyperemia inhibition % [3, 11]: 55%
erosion ulcus-index mm ([3]; 50 mg/kg p.o., n = 7): 5.7 ± 1.5 mm
hyperemia ulcer-index mm ([3]; 50 mg/kg p.o., n = 7): 11.4 ± 2.8 mm
erosion inhibition % ([3]; 50 mg/kg p.o., n = 7, p < 0.01): 87%
hyperemia inhibition % ([3]; 50 mg/kg p.o., n = 7, p < 0.01): 85%
inhibition of hyperemia and erosion (in words) ([3]; substance 1 at 50 mg/kg p.o., cimetidine): significally inhibit hyperemia and erosion
acidity μEqu/ml ([4]; dose 5 i.d.): 105 ± 5 μEqu/ml
volume ([4]; dose 5 i.d., p < 0.05): 1.4 ± 1.24 mL
acid secretion μEqu/4^h ([4]; dose 5 i.d., p < 0.05): 147.0 ± 0.19 μEqu/4^h
acidity μEqu/ml ([4]; dose 10 i.d., not possible to titrate part of the secretion because of small volume): 61 ± 5 μEqu/ml
volume ([4]; dose 10 i.d., p < 0.01): 0.58 ± 0.1 mL
acid secretion μEqu/4^h ([4]; dose 10 i.d., p < 0.01): 42.0 ± 0.3 μEqu/4^h
LD50 at 336 h (Acute toxicity in mice): 840 mg/kg
inhibition % ([5]; piroxicam 60 mg/kg po. + 20 mg/kg po.): 84%
ulcus index ± SEM ([5]; piroxicam 60 mg/kg po. + 20 mg/kg po., p < 0.05): 3.8 ± 0.4
inhibition % ([5]; piroxicam, 30 mg/kg po.): 93%
ulcus index ± SEM ([5]; piroxicam, 30 mg/kg po., p < 0.01): 1.8 ± 0.5
alcohol-induced lesions (in words) ([6]; 10 and 20 mg/kg): alcohol-induced lesions are reduced
stomach ([6]; 100% ethanol + 10 mg/kg): 0.91 ± 0.1 g
Evans-blue ([6]; 100% ethanol + 10 mg/kg): 4.55 ± 0.3 µg/g
stomach ([6]; 100% ethanol + 20 mg/kg): 0.93 ± 0.1 g
Evans-blue ([6]; 100% ethanol + 20 mg/kg): 4.4 ± 0.23 µg/g
LD50 at 336 h (Acute toxicity in rats): 560 mg/kg
average length of haemmorrhages, treated ([7]; 2.3 mg/kg p.o., n = 12, control 95.7 ± 9.4): 91.0 ± 9.4 mm
average length of haemmorrhages, change in % ([7]; 2.3 mg/kg p.o.): -4%
average length of haemmorrhages, treated ([7]; 5.0 mg/kg p.o., n = 18, control 92.9 ± 6.3): 39.7 ± 8.1 mm
average length of haemmorrhages, change in % ([7]; 5.0 mg/kg p.o.): -57%
average length of haemmorrhages, treated ([7]; 10.0 mg/kg p.o., n = 18, control 61.3 ± 9.8): 14.2 ± 7.4 mm
average length of haemmorrhages, change in % ([7]; 10.0 mg/kg p.o.): -77%
ED50 [8]: 13 mg/kg
acid secretion μEqu/4^h ([9]; histamine 10 mg/kg s.c. + 5 mg/kg i.d.): 180 ± 12 μEqu/4^h
acidity μEqu/ml [9, 12]: 105 ± 10 μEqu/ml
volume/4^h [9, 12]: 1.7 ± 0.2 mL
acid secretion μEqu/4^h ([9]; histamine s.c. + 10 mg/kg i.d.): 111 ± 9 μEqu/4^h
acidity μEqu/ml ([9]; histamine s.c. + 10 mg/kg i.d., p < 0.05): 123 ± 8 μEqu/ml

From patent US5830903A, “Triazole substituted quinoline derivatives for gastrointestinal treat-treatment” (Alkaloida Chemical Co., Ltd., priority 1993, dated 1998)
